PMC6452685, “Lysyl-tRNA synthetase as a drug target in malaria and cryptosporidiosis” (Proceedings of the National Academy of Sciences of the …, 2019)

What was measured:
PfKRS1 = PfKRS1 (Plasmodium falciparum, UniProt Q8IDJ8); assay: PfKRS1 hit discovery high-throughput screen (Kinase-Glo); type: biochemical; design: recombinant PfKRS1 (77–583 and 80–583); 6xHis (N); made in house; host or cells: E. coli Rosetta BL21(DE3), vector pAVA0421; details: single point 7.5 µM
Protocol: By using the luciferase ATP consumption (Kinase-Glo) assay platform with sub-Km substrate concentrations (thus biasing the assay toward identifying ATP-competitive inhibitors), the GlaxoSmithKline malaria actives set of ∼13,000 compounds (the Tres Cantos Antimalarial Set) ([19]) was screened against recombinant PfKRS1, leading to the discovery of a PfKRS1 inhibitor, compound 2 (Fig. 1). […] Compound 2 suffered from high metabolic instability (CLi > 50 mL⋅min^−1⋅g^−1 in mouse liver microsomes); however, in contrast to cladosporin 1, it was chemically tractable. […]
Assays were performed in 384-well format i n buffer (as des cri bed i n Tabl e S3), 60 µM lysine, and 75 nM PfKRS1. Compounds were initially screened at single point concentrations of 7.5 µM and hits were re peated three times. Plates were incubated for 180 mi ns at 37°C after a ddition of compounds. Reactions were terminated by the addi ti on of Ki nase-Glo® reagent and read on an E nVi si on pl ate reader (Perki nEl mer, W al tham, MA). […]
Us i ng the EnzChek as s ay pl atform the I C50 value for compound 5 was determined at saturating concentrati ons of both s ubs trates , 0. […] Assay ready plates containing different concent rations of compound 5 were prepa red usi ng an Ec ho® 5 50 acousti c di spenser (Labcyte Inc.). […]

44 receptor/enzyme panel = assay: Preliminary selectivity study in a 44 receptor/enzyme panel; details: at a concentration of 10 μM
[1] = Toxicity in mice at higher doses; type: in vivo; details: higher doses (50 mg/kg orally)
[2] = In vivo pharmacokinetics in mouse
Description: 5. In vi vo pharmacokinetic and efficacy studies
5.1 In viv o ph armacokinetics (Dundee)
The l ev el of each comp ound i n mouse bl ood was determi ned by UPLC -MS/MS as previously re port e d (18). Pharmacokinetic parameters were derived from the blood c oncent ration time curve usi ng PKsol uti ons software v 2.0 (Summi t Research Servi ces, USA). […]

[3] = Intrinsic clearance in human liver microsomes; type: in vitro ADME

Chain of PfKRS1 (Q8IDJ8 77-583): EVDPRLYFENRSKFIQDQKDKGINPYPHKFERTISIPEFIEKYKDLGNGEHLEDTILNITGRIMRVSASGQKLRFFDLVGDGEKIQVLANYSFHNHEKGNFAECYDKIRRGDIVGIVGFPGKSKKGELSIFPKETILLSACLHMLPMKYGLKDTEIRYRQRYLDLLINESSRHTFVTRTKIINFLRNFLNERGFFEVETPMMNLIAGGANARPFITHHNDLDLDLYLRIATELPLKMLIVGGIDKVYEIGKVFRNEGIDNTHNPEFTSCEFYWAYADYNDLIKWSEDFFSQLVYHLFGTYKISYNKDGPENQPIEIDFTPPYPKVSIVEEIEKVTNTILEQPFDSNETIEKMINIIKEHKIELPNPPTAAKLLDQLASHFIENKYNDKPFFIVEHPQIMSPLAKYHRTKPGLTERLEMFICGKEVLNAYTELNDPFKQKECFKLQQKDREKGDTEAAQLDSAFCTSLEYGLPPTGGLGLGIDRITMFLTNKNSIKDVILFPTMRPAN

With `O=C(NCC1CCCCC1)c1cc(=O)c2ccccc2o1` [Compound 2] the “inhibition of PfKRS1 in high-throughput screen” value (PfKRS1) was 71-91%.
With `O=C(NCC1(O)CCC(F)(F)CC1)c1cc(=O)c2cc(F)ccc2o1` [Compound 5] the “activity in 44 receptor/enzyme panel” value (44 receptor/enzyme panel) was “no activity”, the toxicity in mice [1] was “showed toxicity” and the “compound present in mouse stools” value ([2]; after oral dosing) was 17 % of oral dose. It also gave an AUC(0-t) ([2]; female, BALB/c, whole blood, po, orally, 10 mg/kg, read-out: Mouse PK orally AUC0–1440) of 21700 to 50000 ng·h/mL, a Cmax ([2]; female, BALB/c, whole blood, po, orally, 10 mg/kg, read-out: Mouse PK orally Cmax) of 5400 ng/mL and a bioavailability ([2]; female, BALB/c, whole blood, po, orally, 10 mg/kg, read-out: Mouse PK orally F% (oral bioavailability)) of 100%. The Tmax ([2]; female, BALB/c, whole blood, po, orally, 10 mg/kg, read-out: Mouse PK orally Tmax) was 2 h, the AUC ([2]; female, Balb/c, whole blood, iv, intravenously, 3 mg/kg, read-out: Mouse PK intravenously AUC (converted)) was 14800 ng·h/mL and the half-life ([2]; female, Balb/c, whole blood, iv, intravenously, 3 mg/kg, read-out: Mouse PK intravenously T1/2 (converted)) was 2.5 h. For the same compound, the Vd ([2]; female, Balb/c, whole blood, iv, intravenously, 3 mg/kg, read-out: Mouse PK intravenously Vdss) was 1 L/kg, the “Mouse PK intravenously Clb” value ([2]; intravenously, 3 mg/kg) was 3.4 mL⋅min^−1⋅kg^−1 and the “Mouse PK orally F% (oral bioavailability)” value ([2]; orally, 10 mg/kg) was “completely bioavailable”. For the same compound, the “Microsomal stability CLint” value [3] was < 0.5 mL⋅min^−1⋅g^−1.
